Source: patent US20220400680A1, “USE OF ACYLCYANAMIDES OR SALTS THEREOF FOR REGULATING PLANT GROWTH” (Alzchem Trostberg GmbH, priority 2019, published 2022)

Columns and labels:
[1] = system: Table apple, type Boiken apple (C1); assay: Greenhouse test, cut apple branches C1 dipped in test solution, bud development stage; format: in vivo, Malus domestica; design: key to Bud development stage, apple branches C1: Stage 0: Buds unchanged; Stage 1: Buds slightly swollen, first green tips visible; Stage 2: strongly swollen, green buds; Stage 3: Buds before breaking open, leaf or flower root already visible; Stage 4: Flower buds fully developed, but still closed, white petals already visible. In the case of the grapevine, stage 4 was the unfolding of the first leaves; Stage 5: Flowers fully open or, in the case of grapevine, unfolding of the flower roots (“Gescheine”) on the fully leafed sprouts; details: for Dormancy-breaking effect according to the definition, apple C1: stage 4 reached or exceeded after 36 days vs negative control
Procedure: Greenhouse tests were conducted using cut fruit tree branches placed in water jars and maintained under controlled conditions with temperature regulation at approximately 22° C. and natural lighting. C1: Table Apple, Type Boiken Apple Table apple: Malus domestica type Boiken first described in 1828 in Bremen after Deichvogt Boiken. Apple type for rough locations and for almost every soil suitable scattered fruit type, whereby heavy soils and not too warm locations are required. Tree growth initially strong, later medium. Older crowns become broadly spherical and are loosely branched. Flowering starting medium-late and long lasting, petals large with little pink. Yield starting late (October) and irregular; with long shelf life and pressure resistance. […] The test solutions were prepared directly, i.e. without intermediate preparation of a concentrate. For each of the test substances A-1 to A-13, an aqueous solution of 0.15 mol of the test substance and 0.15 g BreakThru® OE-446 was prepared and filled up to a total of 500 g with water. Of bis-cyanamides A-14 and A-15, 0.075 mol each was filled up to 500 g in an analogous manner. These test solutions (in combination with the above 4 species/types Cx) were given the test numbers Cx-A1 to Cx-A15. […] This was done with the following evaluation scale: • Stage 0: […] Flower buds fully developed, but still closed, white petals already visible. […] Flowers fully open or, in the case of grapevine, unfolding of the flower roots (“[…]”) on the fully leafed sprouts.

[2] = system: Table apple, type Zabergäu-Renette (C2); assay: Greenhouse test, cut apple branches C2 dipped in test solution, bud development stage; format: in vivo, Malus domestica; design: key to Bud development stage, apple branches C2: Stage 0: Buds unchanged; Stage 1: Buds slightly swollen, first green tips visible; Stage 2: strongly swollen, green buds; Stage 3: Buds before breaking open, leaf or flower root already visible; Stage 4: Flower buds fully developed, but still closed, white petals already visible. In the case of the grapevine, stage 4 was the unfolding of the first leaves; Stage 5: Flowers fully open or, in the case of grapevine, unfolding of the flower roots (“Gescheine”) on the fully leafed sprouts
Procedure: Greenhouse tests were conducted using cut fruit tree branches placed in water jars and maintained under controlled conditions with temperature regulation at approximately 22° C. and natural lighting. C2: Table Apple, Type […] Table apple: Malus domestica type […] first developed in 1885 as a chance seedling in Hausen a.d. Zaber/Baden-Württemberg and initially grown as 'Hausener Graue […]'. No defined storage type; requires heavy soils (loam). Tree growth initially strong with oblique upright leading branches, later medium with flat branches. Crown broad and flat-spherical with flat fruiting wood. Leaves large, broad oval and with clearly separated tip. Triploid type with late and long-lasting flowering. Yield starting early, medium high and somewhat alternate. […] The test solutions were prepared directly, i.e. without intermediate preparation of a concentrate. For each of the test substances A-1 to A-13, an aqueous solution of 0.15 mol of the test substance and 0.15 g BreakThru® OE-446 was prepared and filled up to a total of 500 g with water. Of bis-cyanamides A-14 and A-15, 0.075 mol each was filled up to 500 g in an analogous manner. These test solutions (in combination with the above 4 species/types Cx) were given the test numbers Cx-A1 to Cx-A15. […] This was done with the following evaluation scale: • Stage 0: […] Flower buds fully developed, but still closed, white petals already visible. […] Flowers fully open or, in the case of grapevine, unfolding of the flower roots (“[…]”) on the fully leafed sprouts.

[3] = system: Table cherry, type Burlat (C3); assay: Greenhouse test, cut cherry branches C3 dipped in test solution, bud development stage; format: in vivo, Prunus avium; design: key to Bud development stage, cherry branches C3: Stage 0: Buds unchanged; Stage 1: Buds slightly swollen, first green tips visible; Stage 2: strongly swollen, green buds; Stage 3: Buds before breaking open, leaf or flower root already visible; Stage 4: Flower buds fully developed, but still closed, white petals already visible. In the case of the grapevine, stage 4 was the unfolding of the first leaves; Stage 5: Flowers fully open or, in the case of grapevine, unfolding of the flower roots (“Gescheine”) on the fully leafed sprouts; details: for Good to very good dormancy-breaking effect, cherry C3: stage 4 reached or exceeded after 21 days vs negative control; for Dormancy-breaking effect according to the definition, cherry C3: stage 4 reached or exceeded after 27 days vs negative control
Procedure: Greenhouse tests were conducted using cut fruit tree branches placed in water jars and maintained under controlled conditions with temperature regulation at approximately 22° C. and natural lighting. C3: Table Cherry, Type Burlat Table cherry: Prunus avium type Bigarreau Burlat or […] is a strong-growing somewhat sparse growing sweet cherry tree with horizontal side sprouts. The type has been known since 1930 and is one of the most important types in commercial cultivation. […] Medium but regular yields identify the type as a secondary type for early and dry areas. […] The test solutions were prepared directly, i.e. without intermediate preparation of a concentrate. For each of the test substances A-1 to A-13, an aqueous solution of 0.15 mol of the test substance and 0.15 g BreakThru® OE-446 was prepared and filled up to a total of 500 g with water. Of bis-cyanamides A-14 and A-15, 0.075 mol each was filled up to 500 g in an analogous manner. These test solutions (in combination with the above 4 species/types Cx) were given the test numbers Cx-A1 to Cx-A15. […] This was done with the following evaluation scale: • Stage 0: […] Flower buds fully developed, but still closed, white petals already visible. […] Flowers fully open or, in the case of grapevine, unfolding of the flower roots (“[…]”) on the fully leafed sprouts.

[4] = system: Grape, type Pinot Noir (C4); assay: Greenhouse test, cut wine sprouts C4 dipped in test solution, bud development stage; format: in vivo, Vitis vinifera subsp. vinifera; design: key to Bud development stage, wine sprouts C4: Stage 0: Buds unchanged; Stage 1: Buds slightly swollen, first green tips visible; Stage 2: strongly swollen, green buds; Stage 3: Buds before breaking open, leaf or flower root already visible; Stage 4: Flower buds fully developed, but still closed, white petals already visible. In the case of the grapevine, stage 4 was the unfolding of the first leaves; Stage 5: Flowers fully open or, in the case of grapevine, unfolding of the flower roots (“Gescheine”) on the fully leafed sprouts; details: for Dormancy-breaking effect according to the definition, wine C4: stage 4 reached or exceeded after 36 days vs negative control
Procedure: Greenhouse tests were conducted using cut fruit tree branches placed in water jars and maintained under controlled conditions with temperature regulation at approximately 22° C. and natural lighting. C4: Grape, Type Pinot Noir Grape: Vitis vinifera subsp. vinifera type Pinot Noir is an important and high quality red wine type that has existed for possibly 2000 years. It is cultivated all over the world because the type produces high quality red wines and has sufficient winter frost resistance. The type requires early and good areas with deep, warm, medium-heavy and fertile soils with good water supply. Pinot Noir produces regular, medium-high to high yields. However, there are a large number of clones that differ in yield, berry size and looseness. […] The test solutions were prepared directly, i.e. without intermediate preparation of a concentrate. For each of the test substances A-1 to A-13, an aqueous solution of 0.15 mol of the test substance and 0.15 g BreakThru® OE-446 was prepared and filled up to a total of 500 g with water. Of bis-cyanamides A-14 and A-15, 0.075 mol each was filled up to 500 g in an analogous manner. These test solutions (in combination with the above 4 species/types Cx) were given the test numbers Cx-A1 to Cx-A15. […] This was done with the following evaluation scale: • Stage 0: […] Flower buds fully developed, but still closed, white petals already visible. […] Flowers fully open or, in the case of grapevine, unfolding of the flower roots (“[…]”) on the fully leafed sprouts.

[5] = T1 (14 d), 0.15 mol (A-14, A-15: 0.075 mol) per 500 g solution
[6] = stage 4 reached or exceeded after 27 days vs negative control

Row | Structure (SMILES) | Bud development stage, apple branches C1 [1, 5] | Bud development stage, apple branches C1 ([1]; T2 (16 d)) | Bud development stage, apple branches C1 ([1]; T3 (21 d)) | Bud development stage, apple branches C1 ([1]; T4 (27 d)) | Bud development stage, apple branches C1 ([1]; T5 (36 d)) | Bud development stage, apple branches C1 ([1]; T6 (56 d)) | Bud development stage, apple branches C2 [2, 5] | Bud development stage, apple branches C2 ([2]; T2 (16 d)) | Bud development stage, apple branches C2 ([2]; T3 (21 d)) | Bud development stage, apple branches C2 ([2]; T4 (27 d)) | Bud development stage, apple branches C2 ([2]; T5 (36 d)) | Bud development stage, apple branches C2 ([2]; T6 (56 d)) | Bud development stage, cherry branches C3 [3, 5] | Bud development stage, cherry branches C3 ([3]; T2 (16 d)) | Bud development stage, cherry branches C3 ([3]; T3 (21 d)) | Bud development stage, cherry branches C3 ([3]; T4 (27 d)) | Bud development stage, cherry branches C3 ([3]; T5 (36 d)) | Bud development stage, cherry branches C3 ([3]; T6 (56 d)) | Bud development stage, wine sprouts C4 [4, 5] | Bud development stage, wine sprouts C4 ([4]; T2 (16 d)) | other results
1 | N#CN [cyanamide] | 3 | 4 | 5 | 5 | 5 | 5 | 0 | 0 | 3 | 4 | 5 | 5 | 2 | 4 | 5 | 5 | 5 | 5 | 0 | 0 | Bud development stage, wine sprouts C4 ([4]; T3 (21 d)): 2; Bud development stage, wine sprouts C4 ([4]; T4 (27 d)): 5; Bud development stage, wine sprouts C4 ([4]; T5 (36 d)): 5; Bud development stage, wine sprouts C4 ([4]; T6 (56 d)): 5
2 | N#CNC=O.[Na] [Example A-2, Sodium Formylcyanamide] | 0 | 0 | 4 | 5 | 5 | 5 | 0 | 0 | 1 | 3 | 5 | 5 | 1 | 2 | 5 | 5 | 5 | 5 | 0 | 1 | Good to very good dormancy-breaking effect, apple C1 [1, 6]: good to very good dormancy-breaking effect; Dormancy-breaking effect according to the definition, apple C1 [1]: dormancy-breaking effect; Dormancy-breaking effect according to the definition, apple C2 ([2]; stage 4 reached or exceeded after 36 days vs negative control): dormancy-breaking effect; Good to very good dormancy-breaking effect, cherry C3 [3]: good to very good dormancy-breaking effect; Dormancy-breaking effect according to the definition, cherry C3 [3]: dormancy-breaking effect; Bud development stage, wine sprouts C4 ([4]; T3 (21 d)): 3; Bud development stage, wine sprouts C4 ([4]; T4 (27 d)): 5; Bud development stage, wine sprouts C4 ([4]; T5 (36 d)): 5; Bud development stage, wine sprouts C4 ([4]; T6 (56 d)): 5; Effect compared with cyanamide, wine C4 ([4]; in vivo): equal effect with cyanamide; Good to very good dormancy-breaking effect, wine C4 [4, 6]: good to very good dormancy-breaking effect; Dormancy-breaking effect according to the definition, wine C4 [4]: dormancy-breaking effect
3 | N#CNC(=O)CCC(=O)NC#N.[Na].[Na] [Example A-14, Disodium-(3-(cyano-amidocarbonyl)-propionyl-cyanamide)] | 1 | 1 | 2 | 3 | 5 | 5 | 0 | 0 | 0 | 1 | 3 | 4 | 0 | 1 | 4 | 5 | 5 | 5 | 0 | 0 | Dormancy-breaking effect according to the definition, apple C1 [1]: dormancy-breaking effect; Good to very good dormancy-breaking effect, cherry C3 [3]: good to very good dormancy-breaking effect; Dormancy-breaking effect according to the definition, cherry C3 [3]: dormancy-breaking effect; Bud development stage, wine sprouts C4 ([4]; T3 (21 d)): 0; Bud development stage, wine sprouts C4 ([4]; T4 (27 d)): 2; Bud development stage, wine sprouts C4 ([4]; T5 (36 d)): 4; Bud development stage, wine sprouts C4 ([4]; T6 (56 d)): 4; Dormancy-breaking effect according to the definition, wine C4 [4]: dormancy-breaking effect
